# Results reported in PubChem BioAssay (NCI).
#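 Each compound was tested at five concentrations against cells in 96-well plates for 48 hours. The concentration for full growth arrest is given as TGI.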
# Columns and labels:
# Assay in all cases: inhibition of tumour cell growth, NCI panel, 48 h
# MDA-N = tested on: MDA-N
# HCT-116 colon = tested on: HCT-116 colon
# DLD-1 colon = tested on: DLD-1 colon
# DU-145 prostate = tested on: DU-145 prostate
# SK-OV-3 ovarian = tested on: SK-OV-3 ovarian
# SK-MEL-2 melanoma = tested on: SK-MEL-2 melanoma
# HT29 colon = tested on: HT29 colon
# CAKI-1 renal = tested on: CAKI-1 renal
# OVCAR-5 ovarian = tested on: OVCAR-5 ovarian
# 786-0 renal = tested on: 786-0 renal
# RXF-631 renal = tested on: RXF-631 renal
# M14 melanoma = tested on: M14 melanoma
# NCI-H226 lung = tested on: NCI-H226 lung
# IGROV1 ovarian = tested on: IGROV1 ovarian
# HCT-15 colon = tested on: HCT-15 colon
# HL-60(TB) leukemia = tested on: HL-60(TB) leukemia
# A549 NSCLC = tested on: A549 NSCLC
# SK-MEL-5 melanoma = tested on: SK-MEL-5 melanoma
# MALME-3M melanoma = tested on: MALME-3M melanoma
# RXF 393 renal = tested on: RXF 393 renal
# EKVX NSCLC = tested on: EKVX NSCLC
# PC-3 prostate = tested on: PC-3 prostate
# HOP-62 NSCLC = tested on: HOP-62 NSCLC
# UACC-257 melanoma = tested on: UACC-257 melanoma
# NCI-H522 lung = tested on: NCI-H522 lung
# MDA-MB-435 = tested on: MDA-MB-435
# SW-620 colon = tested on: SW-620 colon
# MCF7 breast = tested on: MCF7 breast
# CCRF-CEM leukemia = tested on: CCRF-CEM leukemia
# SF-539 CNS = tested on: SF-539 CNS
# TK-10 renal = tested on: TK-10 renal
# NCI-H460 lung = tested on: NCI-H460 lung
# NCI/ADR-RES ovarian = tested on: NCI/ADR-RES ovarian
# HCC-2998 colon = tested on: HCC-2998 colon
# OVCAR-8 ovarian = tested on: OVCAR-8 ovarian
# RPMI-8226 leukemia = tested on: RPMI-8226 leukemia
# SNB-75 CNS = tested on: SNB-75 CNS
# OVCAR-4 ovarian = tested on: OVCAR-4 ovarian
# COLO 205 colon = tested on: COLO 205 colon
# SF-268 CNS = tested on: SF-268 CNS
# BT-549 breast = tested on: BT-549 breast
# UACC-62 melanoma = tested on: UACC-62 melanoma
# NCI-H23 lung = tested on: NCI-H23 lung
# HOP-18 NSCLC = tested on: HOP-18 NSCLC
# T-47D breast = tested on: T-47D breast
# HS 578T breast = tested on: HS 578T breast
# U251 CNS = tested on: U251 CNS
# SNB-19 CNS = tested on: SNB-19 CNS
# SR leukemia = tested on: SR leukemia
# K-562 leukemia = tested on: K-562 leukemia
# MDA-MB-231 breast = tested on: MDA-MB-231 breast
# KM12 colon = tested on: KM12 colon
# ACHN renal = tested on: ACHN renal
# HOP-92 NSCLC = tested on: HOP-92 NSCLC
# OVCAR-3 ovarian = tested on: OVCAR-3 ovarian
# UO-31 renal = tested on: UO-31 renal
# SF-295 CNS = tested on: SF-295 CNS
# KM20L2 colon = tested on: KM20L2 colon
# SN12C renal = tested on: SN12C renal
smiles,measurement,setting,value
COc1ccc2c(NCCCCCCNc3c4ccccc4nc4cc(OC)ccc34)c3ccccc3nc2c1,TGI,MDA-N,1.2 µM
same,TGI,HCT-116 colon,0.333 µM
same,TGI,DLD-1 colon,2.62 µM
same,TGI,DU-145 prostate,1.47 µM
same,TGI,SK-OV-3 ovarian,2.04 µM
same,TGI,SK-MEL-2 melanoma,1.67 µM
same,TGI,HT29 colon,0.486 µM
same,TGI,CAKI-1 renal,3.39 µM
same,TGI,OVCAR-5 ovarian,1.89 µM
same,TGI,786-0 renal,1.3 µM
same,TGI,RXF-631 renal,3.97 µM
same,TGI,M14 melanoma,1.23 µM
same,TGI,NCI-H226 lung,3.49 µM
same,TGI,IGROV1 ovarian,0.339 µM
same,TGI,HCT-15 colon,9.36 µM
same,TGI,HL-60(TB) leukemia,0.379 µM
same,TGI,A549 NSCLC,11.9 µM
same,TGI,SK-MEL-5 melanoma,5.76 µM
same,TGI,MALME-3M melanoma,2.55 µM
same,TGI,RXF 393 renal,0.483 µM
same,TGI,EKVX NSCLC,2.53 µM
same,TGI,PC-3 prostate,0.543 µM
same,TGI,HOP-62 NSCLC,0.946 µM
same,TGI,UACC-257 melanoma,4.12 µM
same,TGI,NCI-H522 lung,0.34 µM
same,TGI,MDA-MB-435,1.26 µM
same,TGI,SW-620 colon,1.08 µM
same,TGI,MCF7 breast,3.35 µM
same,TGI,CCRF-CEM leukemia,0.549 µM
same,TGI,SF-539 CNS,1.03 µM
same,TGI,TK-10 renal,4.56 µM
same,TGI,NCI-H460 lung,1.1 µM
same,TGI,NCI/ADR-RES ovarian,18.8 µM
same,TGI,HCC-2998 colon,0.451 µM
same,TGI,OVCAR-8 ovarian,11 µM
same,TGI,RPMI-8226 leukemia,0.717 µM
same,TGI,SNB-75 CNS,1.74 µM
same,TGI,OVCAR-4 ovarian,0.461 µM
same,TGI,COLO 205 colon,0.189 µM
same,TGI,SF-268 CNS,12.5 µM
same,TGI,BT-549 breast,3.18 µM
same,TGI,UACC-62 melanoma,1.59 µM
same,TGI,NCI-H23 lung,0.819 µM
same,TGI,HOP-18 NSCLC,10.9 µM
same,TGI,T-47D breast,6.16 µM
same,TGI,HS 578T breast,0.937 µM
same,TGI,U251 CNS,1.47 µM
same,TGI,SNB-19 CNS,3.75 µM
same,TGI,SR leukemia,1.54 µM
same,TGI,K-562 leukemia,0.304 µM
same,TGI,MDA-MB-231 breast,0.385 µM
same,TGI,KM12 colon,2.03 µM
same,TGI,ACHN renal,1.01 µM
same,TGI,HOP-92 NSCLC,2.07 µM
same,TGI,OVCAR-3 ovarian,1.76 µM
same,TGI,UO-31 renal,37.5 µM
same,TGI,SF-295 CNS,2.04 µM
same,TGI,KM20L2 colon,1.17 µM
same,TGI,SN12C renal,1.49 µM
